These results are taken from PubChem BioAssay (NCI).

Among the test systems are KM12 colon; BT-549 breast; OVCAR-3 ovarian; PC-3 prostate; DU-145 prostate; MCF7 breast; HOP-62 NSCLC; SF-268 CNS; SN12C renal; SF-539 CNS.
Common to all, as to assay: growth of human tumour cells (NCI), 48 h

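How tested: cells in 96-well plates exposed to compound for 48 hours at five concentrations. GI50 is the concentration that inhibits growth by half. At the TGI there is no net growth.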

For the compound `CN(C)C/C=C/C(=O)Nc1cc2c(Nc3cccc(Cl)c3F)ncnc2cc1OCCOC(F)F`, the GI50 was 3.11 µM with KM12 colon; 2.02 µM in the assay on BT-549 breast; 0.343 µM in the assay on OVCAR-3 ovarian; 2.38 µM in the assay with PC-3 prostate; 0.317 µM in the assay on DU-145 prostate; 1.49 µM in the assay with MCF7 breast. For the same compound, the GI50 in the assay on HOP-62 NSCLC is 1.99 µM; with SF-268 CNS it was 1.44 µM; in the assay on SN12C renal, 0.317 µM; with SF-539 CNS it was 1.5 µM. Also, the TGI was found to be 13.5 µM in the assay with KM12 colon; 9.57 µM with BT-549 breast; 4 µM in the assay with OVCAR-3 ovarian; 13.6 µM in the assay on PC-3 prostate; 10.7 µM in the assay with DU-145 prostate; 12 µM with MCF7 breast. Moreover, the TGI with HOP-62 NSCLC is 11.5 µM; in the assay with SF-268 CNS it was 9.76 µM; in the assay with SN12C renal it was 7.15 µM; in the assay on SF-539 CNS, 5.59 µM.
Consider `OCC1OC(n2cnc3c(NCc4ccccc4O)ncnc32)C(O)C1O` (configuration not stated), for which the GI50 with KM12 colon is 5.23 µM; in the assay with BT-549 breast, 0.177 µM; in the assay with OVCAR-3 ovarian, 0.388 µM; with PC-3 prostate, 0.523 µM; in the assay on DU-145 prostate it was 0.224 µM; with MCF7 breast, 2.05 µM. The GI50 in the assay on HOP-62 NSCLC was 2.33 µM; in the assay on SF-268 CNS it was 0.616 µM; in the assay with SN12C renal it was 0.178 µM; in the assay with SF-539 CNS, 0.403 µM. Moreover, the TGI in the assay with KM12 colon is greater than 100 µM; in the assay on BT-549 breast, 2.29 µM; with OVCAR-3 ovarian it was 2.08 µM; in the assay with PC-3 prostate, greater than 50.1 µM; with DU-145 prostate, greater than 32 µM; with MCF7 breast, 17.1 µM. For the same compound, the TGI in the assay with HOP-62 NSCLC was 18.2 µM; in the assay with SF-268 CNS, greater than 100 µM; in the assay on SN12C renal, 20 µM; in the assay with SF-539 CNS it was 2.49 µM.
Take `Oc1cc(O)c2c(c1)OC(c1ccc(O)c(O)c1)C(O)C2c1c(O)cc(O)c2c1OC(c1ccc(O)c(O)c1)C(O)C2` (configuration not stated): the TGI in the assay on KM12 colon, with BT-549 breast, in the assay with OVCAR-3 ovarian, in the assay with PC-3 prostate, in the assay with DU-145 prostate and in the assay on MCF7 breast was greater than 100 µM throughout. The TGI in the assay on HOP-62 NSCLC, with SF-268 CNS, in the assay with SN12C renal and with SF-539 CNS was greater than 100 µM in each case.
On to `C/C(=N\NC(=S)N1CCN(c2ccccn2)CC1)c1cccc2cccnc12`, for which the TGI in the assay on KM12 colon was greater than 100 µM; in the assay on BT-549 breast, greater than 100 µM; with OVCAR-3 ovarian, greater than 29 µM; in the assay on PC-3 prostate, greater than 100 µM; in the assay on MCF7 breast, greater than 100 µM; with HOP-62 NSCLC, greater than 100 µM. The TGI is greater than 100 µM in the assay with SF-268 CNS, 34.8 µM in the assay with SN12C renal and greater than 31.6 µM in the assay with SF-539 CNS.
In the case of `Oc1ccc(/C=N/NC(=S)Nc2cccnc2)nc1`, the TGI with KM12 colon is greater than 100 µM; in the assay with OVCAR-3 ovarian, greater than 100 µM; in the assay on PC-3 prostate, greater than 100 µM; in the assay with DU-145 prostate, greater than 89.4 µM; in the assay on MCF7 breast it was greater than 39 µM; in the assay with HOP-62 NSCLC, greater than 100 µM. Further, the TGI was greater than 100 µM in the assay with SF-268 CNS, greater than 57 µM in the assay on SN12C renal and 19.6 µM in the assay on SF-539 CNS.
Take `Nc1cc(N)c2nc(-c3ccccc3)c(NCc3ccc(Cl)c(Cl)c3)nc2c1`: the GI50 is 3.42 µM in the assay on KM12 colon; 2.64 µM with OVCAR-3 ovarian; 1.75 µM in the assay with PC-3 prostate; 16.2 µM in the assay with DU-145 prostate; 12.4 µM in the assay on MCF7 breast; 15.7 µM in the assay with HOP-62 NSCLC. For the same compound, the GI50 in the assay with SF-268 CNS was 19.8 µM; in the assay on SN12C renal, 5.98 µM; in the assay with SF-539 CNS, 4.6 µM. For the same compound, the TGI with KM12 colon was 21.3 µM; in the assay with OVCAR-3 ovarian, 6.98 µM; in the assay with PC-3 prostate, 5.16 µM; with DU-145 prostate, 33.4 µM; in the assay on MCF7 breast, 54.3 µM; with HOP-62 NSCLC, 31.9 µM. Moreover, the results for the TGI in the assay on SF-268 CNS, in the assay with SN12C renal and in the assay with SF-539 CNS were 55.2 µM, 24 µM and 18.8 µM, respectively.
On to `CCc1ccccc1NC(=O)C(=O)C(C#N)c1c(Cl)cccc1Cl` (configuration not stated), for which the TGI in the assay on KM12 colon, in the assay on OVCAR-3 ovarian, in the assay with SF-268 CNS, in the assay on SN12C renal and with SF-539 CNS was greater than 100 µM throughout.
As to `O=C(O)CCSC(=O)Nc1ccccc1`, the TGI in the assay with KM12 colon, with OVCAR-3 ovarian, in the assay on HOP-62 NSCLC, in the assay with SF-268 CNS, with SN12C renal and in the assay with SF-539 CNS was greater than 100 µM in each case.
With `O=C1CCc2ccc(O)c(c2)Oc2ccc(cc2)[C@@H]2O[C@@H]2CO1`, the TGI in the assay on KM12 colon, in the assay on OVCAR-3 ovarian, with HOP-62 NSCLC, in the assay with SN12C renal and with SF-539 CNS was greater than 100 µM in each case.
Consider `Cc1ccc(NC(=O)CCC(=O)C2Cc3ccccc3C2=O)cc1C` (configuration not stated), for which the TGI in the assay on KM12 colon, in the assay with OVCAR-3 ovarian, with HOP-62 NSCLC, in the assay with SF-268 CNS, with SN12C renal and in the assay on SF-539 CNS was greater than 100 µM in each case.
With `Cc1cn2c(/C=C3\C(=O)N(C)c4ccc(Cl)cc43)c(C)nc2s1`, the GI50 in the assay with KM12 colon is 1.29 µM; with BT-549 breast it was 6.4 µM; in the assay on OVCAR-3 ovarian, 2.55 µM; in the assay on PC-3 prostate it was 0.99 µM; in the assay on MCF7 breast, 7.01 µM; in the assay on HOP-62 NSCLC it was 5.6 µM. In addition, the values for the GI50 with SF-268 CNS, in the assay with SN12C renal and in the assay on SF-539 CNS were 3.02 µM, 5.24 µM and 2.46 µM, respectively. For the same compound, the TGI in the assay with KM12 colon is greater than 100 µM; with BT-549 breast it was greater than 100 µM; in the assay with OVCAR-3 ovarian it was 6.93 µM; in the assay with PC-3 prostate it was 4.38 µM; with MCF7 breast, 55.5 µM; in the assay with HOP-62 NSCLC, 72 µM. Further, the TGI in the assay on SF-268 CNS was greater than 100 µM; in the assay with SN12C renal, greater than 100 µM; with SF-539 CNS, 6.93 µM.
For `C=CCC1C(=O)CC2(C)C(CC=C)C(=O)CC12C` (configuration not stated), the TGI with KM12 colon, in the assay with OVCAR-3 ovarian, in the assay on HOP-62 NSCLC, in the assay with SN12C renal and in the assay on SF-539 CNS was greater than 100 µM throughout.
On to `O=C(OCc1ccccc1)n1cccc1`, for which the TGI in the assay with KM12 colon, in the assay on OVCAR-3 ovarian, in the assay with HOP-62 NSCLC, in the assay with SF-268 CNS, with SN12C renal and in the assay with SF-539 CNS was greater than 100 µM each time.
